Patent US20260008787A1, “FUSED RING KRAS INHIBITORS FOR TREATING DISEASE” (BLOSSOMHILL THERAPEUTICS, INC., priority 2022, published 2026)

Key:
[1] = tested on: GP2D (KRAS G12D); assay: Cell proliferation assay (CellTiter-Glo, 72 hours), GP2D; format: cell-based; conditions: 384-well, CellTiter-Glo 2.0
Method: (§1) Two thousand KRAS mutant cells per well were seeded in 384-well white plate and then treated with indicated compounds for 72 hours at 37° C. and 5% CO2. Cell proliferation was measured using CellTiter-Glo 2.0 luciferase-based ATP detection assay (Promega, Madison, WI) following the manufacturer's protocol. IC50 values were determined using Prism software (GraphPad Software, San Diego, CA).

[2] = tested on: AGS (G12D); assay: Cell proliferation assay (CellTiter-Glo, 72 hours), AGS; format: cell-based; conditions: 384-well, CellTiter-Glo 2.0
Method: as §1

[3] = target: KRAS G12D (Homo sapiens, UniProt P01116, G12D); assay: biochemical
KRAS G12D, sequence (P01116 1-188 isoform P01116-2 G12D): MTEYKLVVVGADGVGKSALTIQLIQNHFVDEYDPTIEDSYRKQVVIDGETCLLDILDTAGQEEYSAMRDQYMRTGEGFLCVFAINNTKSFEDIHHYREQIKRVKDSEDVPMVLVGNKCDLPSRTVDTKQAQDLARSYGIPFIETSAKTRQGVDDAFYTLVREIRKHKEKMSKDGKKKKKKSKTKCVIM

[4] = target: KRAS G12V (Homo sapiens, UniProt P01116, G12V); assay: biochemical
KRAS G12V, sequence (P01116 1-188 isoform P01116-2 G12V): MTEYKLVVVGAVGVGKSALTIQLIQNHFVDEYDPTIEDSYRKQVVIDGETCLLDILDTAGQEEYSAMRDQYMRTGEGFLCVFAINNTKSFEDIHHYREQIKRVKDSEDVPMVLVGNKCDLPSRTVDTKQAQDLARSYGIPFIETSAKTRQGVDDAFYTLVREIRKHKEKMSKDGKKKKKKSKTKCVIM

[5] = tested on: SW620 (KRAS G12V); assay: Cell proliferation assay (CellTiter-Glo, 72 hours), SW620; format: cell-based; conditions: 384-well, CellTiter-Glo 2.0
Method: as §1

IC50 ([2]; 72 h)	IC50 ([5]; Homo sapiens, SW-620, 72 h)	SMILES	IC50 ([1]; GP2d, 72 h)	IC50 [3]	IC50 [4]	IC50 [1]	IC50 [5]	IC50 [2]
0.393 µM	0.579 µM	CCc1c(F)ccc2cc(O)cc(-c3nc4c5c(nc(OC[C@@]67CCCN6C[C@H](F)C7)nc5c3F)N(C)[C@H](CO)CO4)c12 [Example 92, 5-ethyl-6-fluoro-4-[(9R)-4-fluoro-2-{[(2R,7aS)-2-fluorotetrahydro-1H-pyrrolizin-7a(5H)-yl]methoxy}-9-(hydroxymethyl)-10-methyl-9,10-dihydro-8H-7-oxa-1,3,6,10-tetraazacyclohepta[1,2,3-de]naphthalen-5-yl]naphthalen-2-ol]	0.348 µM					
> 3 µM	> 3 µM	CCc1c(F)ccc2cc(O)cc(-c3nc4c5c(nc(OC[C@@]67CCCN6C[C@H](F)C7)nc5c3F)N[C@H](CO)CO4)c12 [Example 100, 5-ethyl-6-fluoro-4-[(9R)-4-fluoro-2-{[(2R,7aS)-2-fluorotetrahydro-1H-pyrrolizin-7a(5H)-yl]methoxy}-9-(hydroxymethyl)-9,10-dihydro-8H-7-oxa-1,3,6,10-tetraazacyclohepta[1,2,3-de]naphthalen-5-yl]naphthalen-2-ol]	> 3 µM					
3.31 µM	3.32 µM	CCc1c(F)ccc2cc(O)cc(-c3nc4c5c(nc(OC[C@@]67CCCN6C[C@H](F)C7)nc5c3F)N[C@@H](CO)CO4)c12 [Example 124, 5-ethyl-6-fluoro-4-[(9S)-4-fluoro-2-{[(2R,7aS)-2-fluorotetrahydro-1H-pyrrolizin-7a(5H)-yl]methoxy}-9-(hydroxymethyl)-9,10-dihydro-8H-7-oxa-1,3,6,10-tetraazacyclohepta[1,2,3-de]naphthalen-5-yl]naphthalen-2-ol]	1.76 µM					
		C#Cc1c(F)ccc2cc(O)cc(-c3nc4c5c(nc(OC[C@@]67CCCN6C/C(=C\F)C7)nc5c3F)N3CCCC[C@H]3CO4)c12 [Example 76, 5-ethynyl-6-fluoro-4-[(8aS)-4-fluoro-2-{[(2Z,7aS)-2-(fluoromethylidene)tetrahydro-1H-pyrrolizin-7a(5H)-yl]methoxy}-8,8a,9,10,11,12-hexahydro-7-oxa-1,3,6,12a-tetraazabenzo[4,5]cyclohepta[1,2,3-de]naphthalen-5-yl]naphthalen-2-ol]				0.00335 µM	0.0116 µM	0.0123 µM
0.789 µM	> 3 µM	C#Cc1c(F)ccc2cc(O)cc(-c3nc4c5c(nc(OC[C@@]67CCCN6C[C@H](F)C7)nc5c3F)N[C@@H](C(C)C)CO4)c12 [Example 47, 5-ethynyl-6-fluoro-4-[(9S)-4-fluoro-2-{[(2R,7aS)-2-fluorotetrahydro-1H-pyrrolizin-7a(5H)-yl]methoxy}-9-(propan-2-yl)-9,10-dihydro-8H-7-oxa-1,3,6,10-tetraazacyclohepta[1,2,3-de]naphthalen-5-yl]naphthalen-2-ol]	≥ 6 µM					
> 3 µM	> 3 µM	C#Cc1c(F)ccc2cc(O)cc(-c3nc4c5c(nc(OC[C@@]67CCCN6C[C@H](F)C7)nc5c3F)N(C)C3(CCOC3)CO4)c12 (stereo partly drawn) [Example 129, 5-ethynyl-6-fluoro-4-[6-fluoro-3-[[(2R,8S)-2-fluoro-1,2,3,5,6,7-hexahydropyrrolizin-8-yl]methoxy]-13-methyl-spiro[10-oxa-2,4,8,13-tetrazatricyclo[7.4.1.05,14]tetradeca-1,3,5,7,9 (14)-pentaene-12,3′-tetrahydrofuran]-7-yl]naphthalen-2-ol]	> 3 µM					
2.84 µM	1.53 µM	CCc1c(F)ccc2cc(O)cc(-c3nc4c5c(nc(OC[C@@]67CCCN6C[C@H](F)C7)nc5c3F)N[C@@H](C3CC3)CO4)c12 [Example 33, 4-[(9S)-9-cyclopropyl-4-fluoro-2-{[(2R,7aS)-2-fluorotetrahydro-1H-pyrrolizin-7a(5H)-yl]methoxy}-9,10-dihydro-8H-7-oxa-1,3,6,10-tetraazacyclohepta[1,2,3-de]naphthalen-5-yl]-5-ethyl-6-fluoronaphthalen-2-ol]	0.962 µM					
0.197 µM	0.131 µM	C#Cc1c(F)ccc2cc(O)cc(-c3nc4c5c(nc(OC[C@@]67CCCN6C[C@H](F)C7)nc5c3F)N(C[C@@H](C)O)[C@@H](C)CO4)c12 [Example 130, 5-ethynyl-6-fluoro-4-((S)-4-fluoro-2-(((2R,7aS)-2-fluorotetrahydro-1H-pyrrolizin-7a(5H)-yl)methoxy)-10-((R)-2-hydroxypropyl)-9-methyl-9,10-dihydro-8H-7-oxa-1,3,6,10-tetraazacyclohepta[de]naphthalen-5-yl)naphthalen-2-ol]	0.115 µM					
0.0653 µM	0.0427 µM	CCc1c(F)ccc2cc(O)cc(-c3nc4c5c(nc(OC[C@@]67CCCN6C[C@H](F)C7)nc5c3F)N(CC(F)F)[C@@H](C)CO4)c12 [Example 131, 4-[(9S)-10-(2,2-difluoroethyl)-4-fluoro-2-{[(2R,7aS)-2-fluorotetrahydro-1H-pyrrolizin-7a(5H)-yl]methoxy}-9-methyl-9,10-dihydro-8H-7-oxa-1,3,6,10-tetraazacyclohepta[1,2,3-de]naphthalen-5-yl]-5-ethyl-6-fluoronaphthalen-2-ol]	0.0239 µM					
1.13 µM	1.04 µM	C#Cc1c(F)ccc2cc(O)cc(-c3nc4c5c(nc(OC[C@@]67CCCN6C[C@H](F)C7)nc5c3F)N3C=CCC[C@H]3CO4)c12 [Example 107, 5-ethynyl-6-fluoro-4-[(7S)-13-fluoro-16-[[(2R,8S)-2-fluoro-1,2,3,5,6,7-hexahydropyrrolizin-8-yl]methoxy]-9-oxa-2,11,15,17-tetrazatetracyclo [8.7.1.0^2,7.0^14,18]octadeca-1 (17),3,10 (18),11,13,15-hexaen-12-yl]naphthalen-2-ol]	0.749 µM					
> 3 µM	> 3 µM	C#Cc1c(F)ccc2cc(O)cc(-c3nc4c5c(nc(OC[C@@]67CCCN6C[C@H](F)C7)nc5c3F)N[C@@H](C3CCC3)CO4)c12 [Example 35, 4-[(9S)-9-cyclobutyl-4-fluoro-2-{[(2R,7aS)-2-fluorotetrahydro-1H-pyrrolizin-7a(5H)-yl]methoxy}-9,10-dihydro-8H-7-oxa-1,3,6,10-tetraazacyclohepta[1,2,3-de]naphthalen-5-yl]-5-ethynyl-6-fluoronaphthalen-2-ol]	> 3 µM					
0.0427 µM	0.195 µM	C#Cc1c(F)ccc2cc(O)cc(-c3nc4c5c(nc(OC[C@@]67CCCN6C[C@H](F)C7)nc5c3F)N(CC)CCO4)c12 [Example 108, 4-(10-ethyl-4-fluoro-2-{[(2R,7aS)-2-fluorotetrahydro-1H-pyrrolizin-7a(5H)-yl]methoxy}-9,10-dihydro-8H-7-oxa-1,3,6,10-tetraazacyclohepta[1,2,3-de]naphthalen-5-yl)-5-ethynyl-6-fluoronaphthalen-2-ol]	0.0138 µM					
> 3 µM	> 3 µM	C#Cc1c(F)ccc2cc(O)cc(-c3nc4c5c(nc(OC[C@@]67CCC[N+]6(C)C[C@H](F)C7)nc5c3F)N[C@@H](C)CO4)c12 (stereo partly drawn) [Example 77, (2R,7aS)-7a-({[(9S)-5-(8-ethynyl-7-fluoro-3-hydroxynaphthalen-1-yl)-4-fluoro-9-methyl-9,10-dihydro-8H-7-oxa-1,3,6,10-tetraazacyclohepta[1,2,3-de]naphthalen-2-yl]oxy}methyl)-2-fluoro-4-methylhexahydro-1H-pyrrolizin-4-ium]	1.35 µM					
0.133 µM	0.686 µM	C#Cc1c(F)ccc2cc(O)cc(-c3nc4c5c(nc(OC[C@@]67CCCN6C[C@H](F)C7)nc5c3F)N3C[C@H](O)CC[C@@H]3CO4)c12 [Example 87, (8aR,11R)-5-(8-ethynyl-7-fluoro-3-hydroxynaphthalen-1-yl)-4-fluoro-2-{[(2R,7aS)-2-fluorotetrahydro-1H-pyrrolizin-7a(5H)-yl]methoxy}-8,8a,9,10,11,12-hexahydro-7-oxa-1,3,6,12a-tetraazabenzo[4,5]cyclohepta[1,2,3-de]naphthalen-11-ol]	0.0645 µM					
> 3 µM	> 3 µM	C#Cc1c(F)ccc2cc(O)cc(-c3nc4c5c(nc(OC[C@@]67CCCN6C[C@H](F)C7)nc5c3F)N3C[C@@H](O)CC[C@@H]3CO4)c12 [Example 94, (8aR,11S)-5-(8-ethynyl-7-fluoro-3-hydroxynaphthalen-1-yl)-4-fluoro-2-{[(2R,7aS)-2-fluorotetrahydro-1H-pyrrolizin-7a(5H)-yl]methoxy}-8,8a,9,10,11,12-hexahydro-7-oxa-1,3,6,12a-tetraazabenzo[4,5]cyclohepta[1,2,3-de]naphthalen-11-ol]	1.1 µM					

SMILES	IC50 ([2]; 72 h)	IC50 ([5]; Homo sapiens, SW-620, 72 h)	IC50 ([1]; GP2d, 72 h)	IC50 [3]	IC50 [4]	IC50 [1]	IC50 [5]	IC50 [2]
CCc1c(F)ccc2cc(O)cc(-c3nc4c5c(nc(OC[C@@]67CCCN6C[C@H](F)C7)nc5c3F)N3CCC[C@](C)(O)[C@@H]3CO4)c12 [Example 114]	> 3 µM		> 3 µM	0.929 µM	1.2 µM			
C#Cc1c(F)ccc2cc(O)cc(-c3nc4c5c(nc(OC[C@@]67CCCN6C[C@H](F)C7)nc5c3F)N(Cc3ccccc3)CCC4)c12 [Example 112, 4-[13-benzyl-6-fluoro-3-[[(2R,8S)-2-fluoro-1,2,3,5,6,7-hexahydropyrrolizin-8-yl]methoxy]-2,4,8,13-tetrazatricyclo [7.4.1.05,14]tetradeca-1,3,5,7,9 (14)-pentaen-7-yl]-5-ethynyl-6-fluoro-naphthalen-2-ol]	> 3 µM		> 3 µM	0.321 µM	0.0401 µM			
